{"source": "patent US20230203007A1", "about": "“PYRIDINYLACETAMIDE DERIVATIVES AS SODIUM CHANNEL ACTIVATORS” (priority 2021, published 2023)", "origin": "cited, not measured here", "key": {"Nav1.1": {"biological_target": "T1, Nav1.1 (Homo sapiens, UniProt P35498)", "T1 construct": "host or cells: HEK cells", "conditions": "Nav1.1-expressing HEK cells"}, "Nav1.5": {"biological_target": "Nav1.5 (Homo sapiens, UniProt Q14524)", "sequence (Q14524 whole entry)": "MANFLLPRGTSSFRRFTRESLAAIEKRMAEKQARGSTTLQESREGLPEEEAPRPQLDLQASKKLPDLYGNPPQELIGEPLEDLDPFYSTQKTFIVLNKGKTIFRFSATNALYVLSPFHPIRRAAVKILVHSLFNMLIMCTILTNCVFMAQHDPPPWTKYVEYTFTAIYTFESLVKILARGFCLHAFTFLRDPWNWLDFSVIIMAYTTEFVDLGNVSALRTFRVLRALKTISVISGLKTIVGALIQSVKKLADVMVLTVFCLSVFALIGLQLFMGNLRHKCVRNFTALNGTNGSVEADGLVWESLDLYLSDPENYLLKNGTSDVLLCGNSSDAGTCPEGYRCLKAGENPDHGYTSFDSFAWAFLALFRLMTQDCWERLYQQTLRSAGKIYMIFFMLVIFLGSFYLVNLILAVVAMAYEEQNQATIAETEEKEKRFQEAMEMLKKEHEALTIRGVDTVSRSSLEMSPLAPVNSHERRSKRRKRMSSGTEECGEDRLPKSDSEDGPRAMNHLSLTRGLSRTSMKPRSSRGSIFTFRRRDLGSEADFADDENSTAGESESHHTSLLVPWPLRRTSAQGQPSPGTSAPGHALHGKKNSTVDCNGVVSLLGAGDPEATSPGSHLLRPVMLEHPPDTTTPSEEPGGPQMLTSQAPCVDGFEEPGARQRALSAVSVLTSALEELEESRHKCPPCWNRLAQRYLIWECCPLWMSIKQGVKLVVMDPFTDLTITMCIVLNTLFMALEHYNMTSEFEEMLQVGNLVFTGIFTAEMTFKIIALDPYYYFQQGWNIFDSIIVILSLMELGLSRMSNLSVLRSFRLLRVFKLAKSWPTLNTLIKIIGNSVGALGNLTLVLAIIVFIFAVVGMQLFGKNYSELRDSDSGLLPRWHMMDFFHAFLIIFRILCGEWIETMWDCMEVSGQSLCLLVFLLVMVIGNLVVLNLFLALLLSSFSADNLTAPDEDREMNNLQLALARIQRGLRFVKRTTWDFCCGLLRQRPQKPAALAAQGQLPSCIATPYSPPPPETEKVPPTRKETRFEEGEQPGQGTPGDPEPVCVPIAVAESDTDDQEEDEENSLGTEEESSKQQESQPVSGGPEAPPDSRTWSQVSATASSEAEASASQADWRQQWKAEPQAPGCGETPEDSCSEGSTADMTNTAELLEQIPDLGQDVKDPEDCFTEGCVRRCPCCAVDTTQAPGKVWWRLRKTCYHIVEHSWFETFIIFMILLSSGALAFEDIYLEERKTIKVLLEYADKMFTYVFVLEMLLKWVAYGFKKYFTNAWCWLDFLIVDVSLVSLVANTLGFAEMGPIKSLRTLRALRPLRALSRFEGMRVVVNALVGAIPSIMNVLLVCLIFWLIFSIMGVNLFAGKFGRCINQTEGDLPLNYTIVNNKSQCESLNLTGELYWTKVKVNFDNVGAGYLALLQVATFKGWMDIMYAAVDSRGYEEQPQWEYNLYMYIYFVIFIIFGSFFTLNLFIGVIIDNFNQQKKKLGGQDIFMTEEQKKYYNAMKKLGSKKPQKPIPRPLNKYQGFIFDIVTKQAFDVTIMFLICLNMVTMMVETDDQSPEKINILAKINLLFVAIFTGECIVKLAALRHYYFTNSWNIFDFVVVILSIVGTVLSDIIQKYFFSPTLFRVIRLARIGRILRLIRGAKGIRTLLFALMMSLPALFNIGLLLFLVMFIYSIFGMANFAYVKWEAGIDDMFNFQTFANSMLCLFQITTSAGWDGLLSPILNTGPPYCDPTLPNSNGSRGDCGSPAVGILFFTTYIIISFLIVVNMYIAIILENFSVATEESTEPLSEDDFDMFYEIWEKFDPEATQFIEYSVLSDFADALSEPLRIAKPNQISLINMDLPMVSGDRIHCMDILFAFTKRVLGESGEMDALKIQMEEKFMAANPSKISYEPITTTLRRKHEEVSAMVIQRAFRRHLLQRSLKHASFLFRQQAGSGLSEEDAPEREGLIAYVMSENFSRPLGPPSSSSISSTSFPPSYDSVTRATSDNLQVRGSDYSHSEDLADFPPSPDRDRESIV", "conditions": "relative to Nav1.1 activation"}, "Nav1.2": {"biological_target": "Nav1.2 (Homo sapiens, UniProt Q99250)", "sequence (Q99250 whole entry)": "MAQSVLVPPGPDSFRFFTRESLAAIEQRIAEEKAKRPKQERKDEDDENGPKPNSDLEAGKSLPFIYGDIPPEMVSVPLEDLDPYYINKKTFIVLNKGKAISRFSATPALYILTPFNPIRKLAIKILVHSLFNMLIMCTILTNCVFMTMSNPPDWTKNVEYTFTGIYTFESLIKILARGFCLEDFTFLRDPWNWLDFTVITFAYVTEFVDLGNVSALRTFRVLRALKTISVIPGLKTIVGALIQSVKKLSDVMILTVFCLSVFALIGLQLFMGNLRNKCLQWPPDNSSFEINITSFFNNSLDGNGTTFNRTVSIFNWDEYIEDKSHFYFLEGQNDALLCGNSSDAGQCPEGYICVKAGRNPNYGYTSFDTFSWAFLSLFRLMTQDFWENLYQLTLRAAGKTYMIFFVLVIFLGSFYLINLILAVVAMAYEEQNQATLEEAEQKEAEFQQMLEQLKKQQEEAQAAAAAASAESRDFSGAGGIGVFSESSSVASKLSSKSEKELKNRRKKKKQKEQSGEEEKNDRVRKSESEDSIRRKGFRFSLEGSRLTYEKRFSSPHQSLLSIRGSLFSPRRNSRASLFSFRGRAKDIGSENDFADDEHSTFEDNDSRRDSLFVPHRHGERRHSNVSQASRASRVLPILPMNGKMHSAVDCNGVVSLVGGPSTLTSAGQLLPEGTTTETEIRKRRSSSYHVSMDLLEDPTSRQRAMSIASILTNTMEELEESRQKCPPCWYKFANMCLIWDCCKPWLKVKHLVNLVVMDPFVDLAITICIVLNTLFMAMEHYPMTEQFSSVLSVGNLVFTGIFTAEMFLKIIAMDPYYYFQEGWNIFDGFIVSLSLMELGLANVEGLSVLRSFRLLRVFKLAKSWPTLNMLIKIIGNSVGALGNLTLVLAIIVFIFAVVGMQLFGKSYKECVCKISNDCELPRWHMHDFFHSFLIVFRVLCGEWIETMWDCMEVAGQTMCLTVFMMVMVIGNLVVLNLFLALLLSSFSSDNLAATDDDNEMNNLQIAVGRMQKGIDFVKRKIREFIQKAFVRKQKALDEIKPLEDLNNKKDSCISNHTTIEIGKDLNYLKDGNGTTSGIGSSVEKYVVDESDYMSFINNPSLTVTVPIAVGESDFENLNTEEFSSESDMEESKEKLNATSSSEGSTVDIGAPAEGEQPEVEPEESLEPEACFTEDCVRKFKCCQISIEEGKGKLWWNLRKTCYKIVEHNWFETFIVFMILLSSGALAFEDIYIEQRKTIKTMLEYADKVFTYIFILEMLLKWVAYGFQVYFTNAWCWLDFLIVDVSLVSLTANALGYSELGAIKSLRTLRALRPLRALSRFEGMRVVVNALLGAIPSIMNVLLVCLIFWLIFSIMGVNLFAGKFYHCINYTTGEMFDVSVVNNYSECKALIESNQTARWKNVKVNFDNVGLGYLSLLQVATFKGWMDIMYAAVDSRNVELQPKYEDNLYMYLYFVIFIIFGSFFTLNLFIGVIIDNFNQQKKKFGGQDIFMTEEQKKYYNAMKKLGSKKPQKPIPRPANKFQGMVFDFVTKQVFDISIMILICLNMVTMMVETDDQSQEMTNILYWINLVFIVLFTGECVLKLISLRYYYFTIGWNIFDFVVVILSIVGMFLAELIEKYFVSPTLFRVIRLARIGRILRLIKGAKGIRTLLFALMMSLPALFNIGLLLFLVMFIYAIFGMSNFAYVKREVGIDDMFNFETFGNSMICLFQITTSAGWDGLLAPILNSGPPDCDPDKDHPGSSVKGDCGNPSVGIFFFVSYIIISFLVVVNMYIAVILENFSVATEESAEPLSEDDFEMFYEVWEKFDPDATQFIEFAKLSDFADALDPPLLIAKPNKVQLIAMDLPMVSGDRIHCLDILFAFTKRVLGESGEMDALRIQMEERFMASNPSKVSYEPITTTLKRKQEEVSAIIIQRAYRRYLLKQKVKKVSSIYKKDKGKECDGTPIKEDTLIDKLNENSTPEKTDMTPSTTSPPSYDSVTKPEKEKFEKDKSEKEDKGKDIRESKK", "conditions": "relative to Nav1.1 activation"}}, "data": [{"smiles": "CCCCNS(=O)(=O)c1ccc(OC)c(-c2nnc3c4ccccc4c(C)nn23)c1", "note": "[Lu AE98134]", "values": [{"measurement": "concentration from which the total area under the curve for the duration of the depolarizing pulse is increased", "setting": "Nav1.1", "value": "≥ 1", "unit": "µM"}, {"measurement": "selectivity against Nav1.5", "setting": "Nav1.5", "value": "low selectivity"}, {"measurement": "selectivity against Nav1.2", "setting": "Nav1.2", "value": "moderate selectivity"}]}]}
